Measured values as given in publication PMC11434613, “The Remarkable and Selective In Vitro Cytotoxicity of Synthesized Bola-Amphiphilic Nanovesicles on Etoposide-Sensitive and -Resistant Neuroblastoma Cells” (Nanomaterials, 2024).

What was measured:
HTLA-ER cells [1] = assay: Cell viability assay (CellTiter 96 AQueous One Solution) on etoposide-resistant HTLA-ER NB cells; assay type: cell-based, human; details: average IC50 on three human normal oral cell lines (ref 69) / IC50 on HTLA-ER after 24 h (ref 58)
Description: HTLA-230 human stage-IV NB cells were kindly provided by Dr. L. Raffaghello (G. Gaslini Institute, Genoa, Italy). The HTLA-ER cells were selected by treating HTLA-230 parental cells for six months with increasing concentrations of etoposide, as previously reported. Both cell populations were maintained in RPMI 1640 medium (Euroclone Spa, Pavia, Italy) supplemented with 10% fetal bovine serum (FBS, Euroclone Spa, Pavia, Italy), 1% L-glutamine (Euroclone Spa, Pavia, Italy), and 1% Penicillin/Streptomicin (Euroclone Spa, Pavia, Italy) and grown in standard conditions (37 °C humidified incubator with 5% CO2).
To determine the cytotoxic effects of BPPB, in vitro time- and dose-dependent experiments were carried out. Cells were first treated for 24, 48, and 72 h, with increasing concentrations (0.5–50 µM) of the compound. In a subsequent series of the experiments, cells were treated for 24, 48, and 72 h with increasing concentration of BPPB in the range of 0.1–2 µM. […] Cell cultures were carefully monitored before and during the experiments to ensure optimal cell density.
Cell viability was determined by using the CellTiter 96® AQueous One Solution Cell Proliferation Assay (Promega, Madison, WI, USA), as previously described. Briefly, cells (10,000 cells/well) were seeded into 96-well plates (Corning Incorporated, Corning, NY, USA) and then treated. Next, cells were incubated with 20 µL of CellTiter, and the absorbance at 490 nm was recorded using a microplate reader (EL-808, BIO-TEK Instruments Inc., Winooski, VT, USA). IC50 was evaluated by GraphPad Prism 5.4.2 Software (GraphPad Software, Boston, MA, USA).
Results are expressed as the means ± S.D. of at least four independent experiments in which six different wells were analyzed every time for each experimental condition. The statistical significance of differences was determined by two-way analysis of variances (ANOVA) followed by Tukey’s multicomparison test using GraphPad Prism 8.0 (GraphPad Software v8.0, San Diego, CA, USA); p < 0.05 was considered statistically significant. Asterisks or other indicators (see Figures captions) indicate the following p-value ranges: p > 0.05 no symbols, * = p < 0.05, ** = p < 0.01, *** = p < 0.001, **** = p < 0.0001.

[2] = tested on: HTLA-230 human stage-IV NB cells; details: 100 µM for 24 h; cited from earlier work
HTLA-ER cells [3] = details: cited from earlier work

In the case of `COc1cc([C@@H]2c3cc4c(cc3[C@@H](O[C@@H]3O[C@@H]5CO[C@@H](C)O[C@H]5[C@H](O)[C@H]3O)[C@H]3COC(=O)[C@H]23)OCO4)cc(OC)c1O` [ETO, etoposide], the “Etoposide SI for HTLA-ER NB cells” value (HTLA-ER cells [1]) is listed as 0.32, the “Cell viability HTLA-230” value [2] is listed as roughly 70% and the “Cell viability HTLA-ER” value (HTLA-ER cells [3]; 100 µM for 24 h) is listed as “over 80%”. The IC50 (HTLA-ER cells [3]; 24 h of exposure, read-out: Extrapolated IC50 on HTLA-ER) was 592 µM.
